Columns and labels:
[1] = tested on: 7002 CD4+ clone 2; test: IFN-γ production by CD4+ clone 2 stimulated with peptide- or protein-pulsed EBV-B cells; format: cell-based, human; conditions: for IFN-γ production by clone 2: HLA-DR13 EBV-B cells; for recognition of short peptide by clone 2: conclusion from Table V
Protocol: (§1) In order to confirm the efficacy of this protocol, dendritic cells were fed with the MAGE-3 protein, using conditions described above, to stimulate autologous CD4^+ T lymphocytes from hemochromatosis patient LB1158 or from melanoma patient 7002. After four restimulations, the specific production of IFN-γ by an aliquot of each of the microcultures stimulated with the autologous EBV-B cells loaded with MAGE-A3 were tested on day 35 for patient LB1158 and day 37 for patient 7002. For each individual, one positive microculture was cloned using autologous EBV-B cells as stimulating cells, either retrotransduced with MFG Ii MAGE-A3 for LB1158, or fed with protein MAGE-A3 for patient 7002. […] Specifically, autologous EBV-B cells were incubated for 20 h in the presence of 20 μg/ml of recombinant His-MAGE-A3 protein. Clone 22 (2500 cells) was incubated overnight with 5000 MAGE-A3 loaded EBV-B cells in round botton microwells in the presence or absence of monoclonal antibodies which recognize HLA-A,B,C (W6/32) or HLA-DR (2B6). IFN-γ secretion was measured after 20 h by ELISA (FIG. 15A).
(§2) Peptides corresponding to parts of MAGE-A3 (e.g., MAGE107-122, MAGE111-126, MAGE115-130, MAGE119-134) were tested for recognition by clone 2 and 22. HLA-DR13 EBV-B cells were pulsed for 2 h with different concentrations of these peptides. Clones 2 and 37 (2500 cells) were incubated with 5000 peptide pulsed cells in round-bottomed microwells for 20 h and assayed for IFN-γ production.
(§3) Autologous or allogeneic EBV-B cells were pulsed for 2 h with 1 μg/ml MAGE-A3119-134 peptide, and then washed. Clones 2 or 22 were incubated with 5000 peptide-pulsed EBV-B cells in round-bottomed microwells for 20 h and the clones' reactivity to the EBV-B cells was measured by ELISA as IFN-γ secretion. Experiments were performed in triplicate.
(§4) Unlike HLA-class I-restricted peptides, class II-restricted peptides usually vary in length and tolerate extensions at both the amino and carboxy termini, because they are not fixed by their ends in the groove. It is therefore difficult to define precisely the length of the antigenic peptide. Therefore a large number of MAGE-A3 peptides were tested at different concentrations (Tables IV and V). […] 2500 cells of clone 37 were then cocultured for 20 h in round-bottomed microwells with 5000 peptide-pulsed cells. IFN-γ released in the supernatant of the cocultures was measured in an ELISA assay. The experiments were performed in triplicate. […] Clones 2 and 22 (2500 cells) were then cocultured for 20 h in round-bottomed microwells with 5000 peptide-pulsed cells. IFN-γ released in the supernatant of the cocultures was measured in an ELISA assay. The experiments was performed twice in duplicates.

[2] = tested on: LB1158 CD4+ clone 22; test: IFN-γ production by CD4+ clone 22 stimulated with peptide- or protein-pulsed EBV-B cells; format: cell-based, human; conditions: for IFN-γ production by clone 22: HLA-DR13 EBV-B cells; for recognition of short peptide by clone 22: conclusion from Table V
Protocol: as §1, §2, §3, §4

[3] = peptide concentration 100 ng/ml
[4] = peptide concentration 300 ng/ml
[5] = peptide concentration 1000 ng/ml

Sequence | IFN-γ production by clone 2 ([1]; peptide concentration 1 ng/ml) [pg/mL] | IFN-γ production by clone 2 ([1]; peptide concentration 3 ng/ml) [pg/mL] | IFN-γ production by clone 2 ([1]; peptide concentration 10 ng/ml) [pg/mL] | IFN-γ production by clone 2 ([1]; peptide concentration 30 ng/ml) [pg/mL] | IFN-γ production by clone 2 [1, 3] [pg/mL] | IFN-γ production by clone 2 [1, 4] [pg/mL] | IFN-γ production by clone 2 [1, 5] [pg/mL] | IFN-γ production by clone 22 ([2]; peptide concentration 1 ng/ml) [pg/mL] | IFN-γ production by clone 22 ([2]; peptide concentration 3 ng/ml) [pg/mL] | IFN-γ production by clone 22 ([2]; peptide concentration 10 ng/ml) [pg/mL] | IFN-γ production by clone 22 ([2]; peptide concentration 30 ng/ml) [pg/mL] | IFN-γ production by clone 22 [2, 3] [pg/mL] | IFN-γ production by clone 22 [2, 4] [pg/mL] | IFN-γ production by clone 22 [2, 5] [pg/mL] | recognition of short peptide by clone 2 [1] | recognition of short peptide by clone 22 [2]
LLLKYRAREPVTKAE (listed as Homo sapiens) | 169 | 639 | 2028 | 2532 | 2857 | 3124 | 3033 | 718 | 965 | 1440 | 1832 | 1679 | 1739 | 2214 |  | 
FLLLKYRAREPVTKA (listed as Homo sapiens) | 245 | 865 | 1753 | 2713 | 2871 | 3354 | 3314 | 283 | 1294 | 1619 | 1775 | 1854 | 1965 | 2180 |  | 
LKYRAREPVTKAE (listed as Homo sapiens) | 0 | 0 | 79 | 386 | 1324 | 2544 | 2755 | 0 | 25 | 223 | 567 | 1029 | 1475 | 2004 |  | 
FLLLKYRAREP (listed as Homo sapiens) | 0 | 0 | 0 | 0 | 85 | 0 | 23 | 0 | 0 | 1 | 7 | 6 | 7 | 30 |  | 
FLLLKYRAREPVTK (listed as Homo sapiens) | 0 | 0 | 0 | 0 | 85 | 0 | 0 | 0 | 0 | 1 | 10 | 28 | 115 | 453 |  | 
LLKYRAREPVTKAE (listed as Homo sapiens) | 40 | 303 | 1419 | 2012 | 2918 | 3186 | 3078 | 262 | 638 | 1073 | 1651 | 1736 | 1826 | 2225 | well recognized | well recognized
FLLLKYRAREPVT (listed as Homo sapiens) | 114 | 370 | 1437 | 2003 | 2951 | 2860 | 3079 | 291 | 584 | 1099 | 1635 | 1510 | 1834 | 2183 | well recognized | well recognized
KYRAREPVTKAE (listed as Homo sapiens) | 0 | 0 | 0 | 0 | 0 | 0 | 50 | 0 | 5 | 0 | 5 | 16 | 135 | 542 |  | 
FLLLKYRAREPV (listed as Homo sapiens) | 0 | 4 | 78 | 216 | 821 | 1632 | 2667 | 0 | 3 | 13 | 132 | 383 | 746 | 1353 |  | 

Reference: patent publication US6716809B1, “Mage-A3 peptides presented by HLA class molecules” (priority 1997, dated 2004)
